Test results reported in patent publication US4482560A, “Carbostyril derivatives, and antihistaminic agents containing the same” (priority 1979, dated 1984).
Counter-ions that a name gives are not always drawn. Like-named read-outs stand apart in the source and are kept apart here.

What was measured:
Male mice of ddy-strain = assay: Halothane anesthesia increasing activity; assay type: in vivo, mouse; conditions: for Halothane anesthesia increasing activity / central nervous controlling effect in words: compared with control (physiological saline solution); for Time (minutes) between introduction of anesthesia and waking (righting reflex): oral, 32 mg/kg, 1 hour before 4% Halothane for 3 minutes, male ddy mice, saline control 4.2
Experimental: Male mice of ddy-strain having about 20 g body weight were used. One test group consists of 10 mice. An aqueous Gummi Arabicum suspension of test compound (80 mg of a compound to be tested and 1 g of Gummi Arabicum/100 ml of physiological NaCl solution) was administered orally to each mouse at the dosage of 32 mg of test compound/kg body. One hour after the administration, each mouse was placed in gas respiration chamber (13×13×24 cm) and oxygen gas containing 4% of Halothane [2-bromo-2-chloro-1,1,1-trifluoroethane] was blown into the chamber at the velocity of 2 l/min for 3 minutes. A mouse anaesthetized was taken out from the chamber and the time between the introduction of anesthesia to waking was measured by righting reflex as the index. To mice of control group, 1% Gummi Arabicum aqueous physiological solution was orally administered at the dosage of 0.1 ml/kg body. (Reference: M. J. Turnbull and J. W. Watkins: Br. J. Pharmacol., 58, 27-35 (1976))

ileum of a guinea pig = ileum of a guinea pig (Cavia porcellus, UniProt P31389); assay: cell-based
Experimental: Pharmacological tests of the present compounds were conducted according to said method as follows:
A male guinea pig having 300 to 500 g body weight is killed by blood letting. An ileum having length of 15 cm being enucleated from the ileocecal region is dipped into Tyrode's solution (which is prepared from 8.0 g of NaCl, 0.2 g of KCl, 0.2 g of CaCl2, 1.0 g of glucose, 1.0 g of NaHCO3, 0.065 g of NaHPO4.2H2 O and 0.2135 g of MgCl2.6H2 O to make 1000 ml in total volume by adding water). Then the tissue of ileum is cut to a length of 2.5 to 3.0 cm and suspended in an organ bath filled with 30 ml of Tyrode's solution. The organ bath is kept a temperature of 36° C. while blowing a mixed gas consisting of 5% of CO2 and 95% of O2 into the bath. 10 Minutes after the blowing, 10^-6 M of histamine is added to the bath to examine the sensitivity of the tissue and a reaction curve (control) with respect to the dosage of histamine is obtained. After the dosage of histamine-reaction curve (control) become constant 10^-6 g/ml of a compound to be tested is added to the bath and further histamine is added 5 minutes later to obtain dosage-reaction curve. Retraction of the ileum is recorded on a pen-recorder through an isotonic transducer (TD-112S manufactured by Nihon Koden).

Acute toxicity test = conditions: rat, in vivo; oral, male rats
Text: Each of the compounds of the present invention was orally administered to male rats to determine the acute toxicity.

[1] = histamine-induced retraction of guinea pig ileum, test compound 10^-6 g/ml, 36° C., Van Rossam method
[2] = histamine-induced retraction of guinea pig ileum, test compound 10^-6 g/ml, 36° C., Van Rossam method, read-out: pA2 (converted)

ileum of a guinea pig, sequence (P31389 whole entry): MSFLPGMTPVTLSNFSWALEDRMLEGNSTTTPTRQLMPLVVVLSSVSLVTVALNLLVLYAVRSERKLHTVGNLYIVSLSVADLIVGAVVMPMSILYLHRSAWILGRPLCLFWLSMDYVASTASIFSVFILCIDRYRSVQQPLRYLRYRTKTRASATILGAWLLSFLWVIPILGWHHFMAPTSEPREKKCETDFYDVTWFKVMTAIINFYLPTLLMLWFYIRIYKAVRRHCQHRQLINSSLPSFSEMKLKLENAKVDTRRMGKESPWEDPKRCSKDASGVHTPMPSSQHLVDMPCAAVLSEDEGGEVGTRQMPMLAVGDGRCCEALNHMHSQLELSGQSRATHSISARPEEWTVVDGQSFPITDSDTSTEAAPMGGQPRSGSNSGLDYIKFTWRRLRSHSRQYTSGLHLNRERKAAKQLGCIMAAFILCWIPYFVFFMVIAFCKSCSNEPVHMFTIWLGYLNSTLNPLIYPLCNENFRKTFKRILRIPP

With “7-[4-β-Chlorophenyl)-1-piperazinylpropoxy]-carbostyril [reference compound]” as the compound, how does the “Halothane anesthesia increasing activity / central nervous controlling effect in words” value (Male mice of ddy-strain) read?
Its value is “different Halothane anesthesia increasing activity as compared with control”.

What about the “Time (minutes) between introduction of anesthesia and waking (righting reflex)” value (from here on “Time (minutes) between introduction”) (Male mice of ddy-strain) of the same compound?
The value was 32.7 min.

Which results are given for “8-(2-Propionyloxy)-5-[2-hydroxy-3-(4-phenyl-1-piperazinyl)propoxy]-3,4-dihydrocarbostyril hydrochloride [Q, reference compound]”?
pA2 (ileum of a guinea pig; [1]): 8.65; Halothane anesthesia increasing activity / central nervous controlling effect in words (Male mice of ddy-strain): different Halothane anesthesia increasing activity as compared with control; Time (minutes) between introduction of anesthesia and waking (righting reflex) (Male mice of ddy-strain): 8.7 min

What does the source list for `C#CCN1C(=O)CCc2c(OCCCN3CCC(Cc4ccccc4)CC3)cccc21.Cl` [Compound 3, 1-Propargyl-5-[3-(4-benzyl-1-piperidyl)-propoxy]-3,4-dihydrocarbostyril monohydrochloride]?
Kb (ileum of a guinea pig; [2]): 0.186 nM; LD50 (Acute toxicity test): > 1000 mg/kg; Time (minutes) between introduction of anesthesia and waking (righting reflex) (Male mice of ddy-strain): 5.1 min

With `CN1C(=O)CCc2c(OCCCN3CCC(Cc4ccccc4)CC3)cccc21.Cl` [Compound 4, 1-Methyl-5-[3-(4-benzyl-1-piperidyl)propoxy]-3,4-dihydrocarbostyril monohydrochloride] as the compound, how does the Kb (ileum of a guinea pig; [2]) read?
The Kb was 0.01 nM.

And the LD50 (Acute toxicity test)?
Its LD50 is greater than 1000 mg/kg.

What about the “Time (minutes) between introduction” value (Male mice of ddy-strain) of the same compound?
The value was 4.2 min.

Which results are given for `Cc1cc(=O)[nH]c2cc(OCCCN3CCC(Cc4ccccc4)CC3)ccc12` [Compound 5, 4-Methyl-7-[3-(4-benzyl-1-piperidyl)propoxy]-carbostyril]?
Kb (ileum of a guinea pig; [2]): 0.257 nM; LD50 (Acute toxicity test): > 1000 mg/kg; Time (minutes) between introduction of anesthesia and waking (righting reflex) (Male mice of ddy-strain): 4.6 min

For `C=CCN1C(=O)CCc2c(OCC(O)CN3CCC(Cc4ccccc4)CC3)cccc21.O=C(O)C(=O)O` (stereo not drawn) [Compound 6, 1-Allyl-5-[2-hydroxy-(4-benzyl-1-piperidyl)-propoxy]-3,4-dihydrocarbostyril monooxalate], which Kb (ileum of a guinea pig; [2]) is on record?
Its Kb is 0.288 nM.

What about the LD50 (Acute toxicity test) of the same compound?
The LD50 was greater than 1000 mg/kg.

And the “Time (minutes) between introduction” value (Male mice of ddy-strain)?
Its value is 5.6 min.

With `CCN1C(=O)CCc2c(OCC(O)CN3CCC(Cc4ccccc4)CC3)cccc21.O=C(O)C(=O)O` (stereo not drawn) [Compound 7, 1-Ethyl-5-[2-hydroxy-3-(4-benzyl-1-piperidyl)-propoxy]-3,4-dihydrocarbostyril monooxalate] as the compound, how does the Kb (ileum of a guinea pig; [2]) read?
The Kb was 0.224 nM.

And the LD50 (Acute toxicity test)?
Its LD50 is greater than 1000 mg/kg.

And the “Time (minutes) between introduction” value (Male mice of ddy-strain)?
Its value is 4.2 min.

Which Kb (ileum of a guinea pig; [2]) does the source give for `O=C1CCc2c(OCC(O)CN3CCC(Cc4ccccc4)CC3)ccc(Br)c2N1` (stereo not drawn) [Compound 8, 8-Bromo-5-[2-hydroxy-3-(4-benzyl-1-piperidyl)-propoxy]-3,4-dihydrocarbostyril] here?
Its Kb is 4.07 nM.

What about the LD50 (Acute toxicity test) of the same compound?
Its LD50 is greater than 1000 mg/kg.

And the “Time (minutes) between introduction” value (Male mice of ddy-strain)?
Its value is 5.5 min.

Which results are given for `O=C(O)C(=O)O.O=C1CCc2c(OCC(O)CN3CCC(Cc4ccccc4)CC3)cccc2N1Cc1ccccc1` (stereo not drawn) [Compound 12, 1-Benzyl-5-[2-hydroxy-(4-benzyl-1-piperidyl)-propoxy]-3,4-dihydrocarbostyril monooxalate]?
Kb (ileum of a guinea pig; [2]): 0.02 nM; LD50 (Acute toxicity test): > 1000 mg/kg; Time (minutes) between introduction of anesthesia and waking (righting reflex) (Male mice of ddy-strain): 4.2 min

Which results are given for `O=C1CCc2c(cccc2OCCCN2CCC(O)(c3ccccc3)CC2)N1` [Compound 14, 5-{3-[4-(4-Hydroxy-4-phenyl)-1-piperidyl]}-3,4-dihydrocarbostyril]?
pA2 (ileum of a guinea pig; [1]): 9.30; LD50 (Acute toxicity test): > 1000 mg/kg; Time (minutes) between introduction of anesthesia and waking (righting reflex) (Male mice of ddy-strain): 5.1 min

Which Kb (ileum of a guinea pig) does the source give for `CC(C(=O)c1cc(Cl)c2c(c1)CCC(=O)N2)N1CCN(c2ccccc2)CC1` (stereo not drawn) [Compound N, 8-Chloro-6-[α-(4-phenyl)-1-piperazinyl)-propionyl]-3,4-dihydrocarbostyril hydrochloride, reference compound] here?
Its Kb is 617 nM.

Which pA2 (ileum of a guinea pig; [1]) does the source give for `O=c1ccc2cccc(OCCCN3CCN(c4ccccc4)CC3)c2[nH]1` [F, 8-(4-Phenyl-1-piperazinylpropoxy)carbostyril, reference compound] here?
Its pA2 is 8.58.

What about the “Time (minutes) between introduction” value (Male mice of ddy-strain) of the same compound?
The value was 9.5 min.

With `O=c1ccc2ccc(OCCCN3CCN(c4ccccc4)CC3)cc2[nH]1` [G, 7-(4-Phenyl-1-piperazinylpropoxy)carbostyril, reference compound] as the compound, how does the “Time (minutes) between introduction” value (Male mice of ddy-strain) read?
Its value is 28.7 min.

For `Cc1cc(=O)[nH]c2ccc(OCCCN3CCN(c4ccccc4)CC3)cc12` [H, 4-Methyl-6-(4-phenyl-1-piperazinylpropoxy)-carbostyril, reference compound], which Kb (ileum of a guinea pig; [2]) is on record?
Its Kb is 0.269 nM.

With `Cc1cc(=O)[nH]c2cc(OCCCN3CCN(Cc4ccc(Cl)cc4)CC3)ccc12` [J, reference compound] as the compound, how does the pA2 (ileum of a guinea pig; [1]) read?
The pA2 was 9.13.

And the “Halothane anesthesia increasing activity / central nervous controlling effect in words” value (Male mice of ddy-strain)?
Its value is “different Halothane anesthesia increasing activity as compared with control”.

And the “Time (minutes) between introduction” value (Male mice of ddy-strain)?
The value was 8.5 min.

For `CC(C)(C)NCC(O)c1cc(Cl)c2c(c1)CCC(=O)N2` (stereo not drawn) [K, 8-Chloro-6-(1-hydroxy-2-tert-butylamino-ethyl)-3,4-dihydrocarbostyril monohydrochloride, reference compound], which Kb (ileum of a guinea pig; [2]) is on record?
Its Kb is 47900 nM.

For `COc1ccc(CCNC(C)C(=O)c2cc(Cl)c3c(c2)CCC(=O)N3)cc1OC` (stereo not drawn) [L, 8-Chloro-6-[α-(β-3,4-dimethoxyphenethyl-amino)propionyl]-3,4-dihydrocarbostyril monohydrochloride, reference compound], which Kb (ileum of a guinea pig; [2]) is on record?
The Kb was 4790 nM.

For `CC(C(O)c1cc(Cl)c2c(c1)CCC(=O)N2)N1CCN(c2ccccc2)CC1` (stereo not drawn) [M, 8-Chloro-6-[1-hydroxy-2-(4-phenyl-1-piperazinyl)propyl]-3,4-dihydrocarbostyril monohydrochloride, reference compound], which Kb (ileum of a guinea pig; [2]) is on record?
The Kb was 6460 nM.

For `COc1ccc(CCNC(C)C(O)c2cc(Cl)c3c(c2)CCC(=O)N3)cc1OC` (stereo not drawn) [O, 8-Chloro-6-[1-hydroxy-2-(β-3,4-dimethoxy-phenethylamino)propyl]-3,4-dihydrocarbostyril hydrochloride, reference compound], which Kb (ileum of a guinea pig; [2]) is on record?
Its Kb is 1480 nM.

For `CC(=O)Oc1ccc(OCC(O)CN2CCN(c3ccccc3Cl)CC2)c2c1NC(=O)CC2` (stereo not drawn) [P, 8-Acetyoxy-5-{2-hydroxy-3-[4-(2-chloro-phenyl)-1-piperazinyl]propoxy}-3,4-dihydrocarbostyril hydrochloride, reference compound], which Kb (ileum of a guinea pig; [2]) is on record?
The Kb was 24 nM.

What about the “Halothane anesthesia increasing activity / central nervous controlling effect in words” value (Male mice of ddy-strain) of the same compound?
Its value is “different Halothane anesthesia increasing activity as compared with control”.

What about the “Time (minutes) between introduction” value (Male mice of ddy-strain) of the same compound?
The value was 8.9 min.

Which pA2 (ileum of a guinea pig; [1]) does the source give for `COc1ccc(N2CCN(CC(O)COc3ccc(OCc4ccccc4)c4c3CCC(=O)N4)CC2)cc1` (stereo not drawn) [R, Benzyloxy-5-{2-hydroxy-3-[4-(4-methoxy-phenyl)-1-piperazinyl]propoxy}-3,4-dihydrocarbostyril hydrochloride, reference compound] here?
The pA2 was 9.57.

For `COc1ccc(N2CCN(CC(O)COc3ccc(NC(N)=O)c4c3CCC(=O)N4)CC2)cc1.Cl` (stereo not drawn) [S, 5-{2-Hydroxy-3-[4-(4-methoxyphenyl)-1-piperazinyl]propoxy}-8-ureido-3,4-dihydrocarbostyril hydrochloride, reference compound], which Kb (ileum of a guinea pig; [2]) is on record?
The Kb was 10.7 nM.

What about the “Halothane anesthesia increasing activity / central nervous controlling effect in words” value (Male mice of ddy-strain) of the same compound?
Its value is “different Halothane anesthesia increasing activity as compared with control”.

What about the “Time (minutes) between introduction” value (Male mice of ddy-strain) of the same compound?
The value was 9.1 min.

Which results are given for `Cc1ccccc1N1CCN(CC(O)COc2ccc(NS(C)(=O)=O)c3c2CCC(=O)N3)CC1` (stereo not drawn) [T, 8-Methanesulfonylamino-5-{2-hydroxy-3-[4-(2-methylphenyl)-1-piperazinyl]propoxy}-3,4-dihydro-carbostyril, reference compound]?
Kb (ileum of a guinea pig; [2]): 15.8 nM; Halothane anesthesia increasing activity / central nervous controlling effect in words (Male mice of ddy-strain): different Halothane anesthesia increasing activity as compared with control; Time (minutes) between introduction of anesthesia and waking (righting reflex) (Male mice of ddy-strain): 8.9 min
